The values below come from patent US9770441B1, “Crystalline solid forms of 6-carboxy-2-(3,5-dichlorophenyl)-benzoxazole” (Pfizer Inc., priority 2014, dated 2017).

Data set [1] is described as follows: hygroscopicity as stated in the description of the solid form. In kind it is physicochemical. To be noted: crystalline anhydrous form.
Data set [2] can be described thus: isothermal vapor sorption analysis. In kind it is physicochemical. To be noted: up to 90% relative humidity, ambient temperature. As for the experimental part:
Form 1 was analyzed via isothermal vapor sorption analysis, which is a gravimetric technique that measures how quickly and how much of a solvent is absorbed by a sample: such as a dry powder absorbing water. It does this by varying the vapor concentration surrounding the sample and measuring the change in mass which this produces.

On to `O=C(O)c1ccc2nc(-c3cc(Cl)cc(Cl)c3)oc2c1` [Form 1, 6-carboxy-2-(3,5-dichlorophenyl)-benzoxazole], for which the “hygroscopicity of the solid form” value in data set [1] is reported as “non-hygroscopic”. Moreover, the reversible weight gain result in data set [2] is listed as “less than 0.25%”.
